Structures are written as SMILES. Inconclusive results are not listed.

Usually IC50 stands for the point on the concentration scale where inhibition reaches its midpoint. One may read the IC90 as the point of the concentration-response curve where the effect stands at 90%. Low readings indicate greater potency, high ones weaker potency.

The test system of this assay is M. tuberculosis H37Rv growth inhibition, 7H9 media. In words: M. tuberculosis growth inhibition, HTS (AID 449762).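 As to all read-outs here: bacterial growth assessed after seven days of incubation.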 The following applies: for IC90: measured here: IC90 growth inhibition.

Regarding `Cc1ccc(Cn2ccsc2=NC(=O)CCl)cc1`, the IC50 is 0.57 µM and the IC90 was 1.52 µM.
On to `CCCCn1c(O)c(/C=C2/C=CC=N2)c(=O)[nH]c1=O`, for which the IC50 is 6.55 µM and the IC90 was 17.1 µM.
For `O=C1NCN(c2ccccc2)C12CCN(CCCC(c1ccc(F)cc1)c1ccc(F)cc1)CC2` the same measures were 36.8 µM and 47.1 µM.
Turning to `CC(C)(C)c1ccc(-c2nc(-c3ccncc3)no2)cc1`, the half-inhibitory concentration (IC50) is 9.16 µM and the IC90 came to 33.6 µM.
In the case of `COc1cc2cc(C(c3nnnn3C(C)(C)C)N3CCc4ccccc43)c(=O)[nH]c2cc1OC` (centres undefined), the IC50 was 97.4 µM and the 90% effect concentration (IC90) was above 100 µM.
For `Cc1nn(CCc2nn[nH]n2)c2nc(-c3ccc(Br)cc3)cc(C(F)(F)F)c12` the same measures were 4.64 µM and 10.8 µM.
Regarding `CN1C(=O)/C(=C/c2cccc(Cl)c2)Sc2ccc(C(=O)N3CCCC3)cc21`, the IC50 is 17.1 µM and the IC90 is 31 µM.
The matching figures for `Cc1ccc(C)c(NC(=O)c2cc(-c3ccccc3)nn2-c2ccccc2)c1`: 34.9 µM and 59.6 µM.
For `CC(C)(C)c1cc(-c2nc(N)nc(N)n2)c(O)c(C(C)(C)C)c1`, the IC50 is 75.9 µM and the IC90 was determined as 88.9 µM.
As to `O=C1CCc2ccc(OCCCCN3CCN(c4cccc(Cl)c4Cl)CC3)cc2N1`, the IC50 is 13.1 µM and the IC90 was above 100 µM.
Regarding `Cc1noc2ncnc(Sc3ccc(Cl)cc3)c12`, the IC50 was 82.9 µM and the IC90 was above 100 µM.
For `COCCn1nnnc1C(c1cc2cc(OC)ccc2[nH]c1=O)N1CCC(Cc2ccccc2)CC1` (centres undefined) the same measures were 89.2 µM and 99.8 µM.
With `O=C1C(c2ccccc2)=[N+]([O-])c2ccccc21`, the IC50 was 95.8 µM and the IC90 is above 100 µM.
For `Cc1c(CN2CCC(CO)(Cc3cccc(C(F)(F)F)c3)CC2)c2ccccc2n1C` the same measures were 20.6 µM and 28.9 µM.
On to `c1ccc2c(c1)CCN(c1nc(CN3CCOCC3)nc3sc4c(c13)CCCC4)C2`, for which the IC50 was 13.8 µM and the IC90 stood at 33.6 µM.
For `CCN(CC)C(=O)[C@H]1CC(CC(=O)NCC23CC4CC(CC(C4)C2)C3)C(=O)N2CCc3c([nH]c4ccccc34)[C@]12C` (some centres undefined) the same measures were 18.3 µM and 24.8 µM.
As for `CN(Cc1ccco1)c1ncnc2ccc(-c3ccc4c(ccn4C)c3)cc12`, the IC50 is 16.9 µM and the IC90 is 44.9 µM.
For `CCC(C)(C)c1ccc(OCCCC[n+]2ccc(C)cc2)c(C(C)(C)CC)c1` the same measures were 10.2 µM and 15 µM.
In the case of `C=CCN1CC[C@]23c4c5ccc(O)c4O[C@H]2/C(=N/NC(=O)c2ccccc2)CC[C@@]3(O)[C@H]1C5`, the IC50 was 79.5 µM and the IC90 was above 100 µM.
For `COc1ccc(/C(O)=C/Sc2nnc(Cc3ccccc3)o2)cc1` the same measures were 26.3 µM and above 100 µM.
For `Cc1oc(C(=O)Nc2ccc(O)cc2)cc1COc1ccccc1` the same measures were 12.5 µM and 43.6 µM.
For the compound `CNC(=O)COC(=O)c1ccc(-c2nc3ccccc3s2)s1`, the IC50 was 2.07 µM and the IC90 turned out to be 23 µM.
For `CC(C)(C)C1CCc2c(sc3nc(SCC(N)=O)nc(N)c23)C1` (centres undefined) the same measures were 15.4 µM and 31.8 µM.
On to `N#Cc1c(SCC(N)=O)nsc1SCc1ccccc1Cl`, for which the IC50 was 12.6 µM and the IC90 amounted to 34.7 µM.
The matching figures for `CCOC(=O)c1c(C)[nH]c(N=Nc2ccc(OC)cc2)c1C`: 1.71 µM and 5.55 µM.
On to `COC(=O)c1ccc(NC(=O)CSc2nc3ccc(N4C(=O)C5C6C=CC(C6)C5C4=O)cc3s2)cc1` (centres undefined), for which the IC50 is 3.89 µM and the IC90 worked out at 5.73 µM.
The matching figures for `Cc1ccn2c(NC3CCCCC3)c(-c3cccc(-c4cccc(Cl)c4)c3)nc2c1`: 14.2 µM and 27 µM.
The matching figures for `Cn1c(-c2c(N)n(CCc3ccccc3)c3nc4ccccc4nc23)nc2ccccc21`: 7.64 µM and above 100 µM.
The matching figures for `COc1ccc(C2CC(c3cccs3)=Nc3ccccc3S2)cc1` (centres undefined): 30.1 µM and 44 µM.
Take `CCCCNc1c(-c2ccc(SC3CCCCC3)c(OC)c2)nc2ccc(C)cn12`: the IC50 was 11.4 µM and the IC90 was 12.8 µM.
Take `CCOC(=O)CSc1ncnc2c1sc1nc(N3CCOCC3)c3c(c12)CCCC3`: the IC50 is 23.3 µM and the IC90 turned out to be 26.2 µM.
The matching figures for `CC(=O)OC1=Cc2c(ccc3ccc(=O)oc23)OC1(C)C`: 14 µM and 31.6 µM.
For `Nc1c(-c2ccccn2)cnn1-c1nc(-c2ccc(F)cc2)cs1` the same measures were 12.6 µM and above 100 µM.
Regarding `C(=N\NC1=Nc2cccc3cccc1c23)/c1cccnc1`, the IC50 was 13.4 µM and the 90% effect concentration (IC90) is above 100 µM.
The matching figures for `C#CCOCCOCCOCCNc1nc(N2CCN(C(=O)C(Cc3ccc(O)cc3)n3cc(C(N)CC(C)C)nn3)CC2)nc(N2CCN(C(=O)C(Cc3cc4ccccc4[nH]3)n3cc(C(N)Cc4ccc(O)cc4)nn3)CC2)n1` (centres undefined): 6.03 µM and 6.93 µM.
For `Cc1ccc(C(=O)Nc2cccc(C(F)(F)F)c2)cc1Nc1ncnc2nc[nH]c12` the same measures were 50 µM and above 100 µM.
For `Cc1cccc(C)c1Nc1c(-c2ccccn2)nc2ccccn12` the same measures were 2.18 µM and 5.73 µM.
Turning to `CCCCCNc1nc(N2CCCC2)c2c(c1C#N)CCN(C)C2`, the half-maximal inhibitory concentration (IC50) was 83.7 µM and the IC90 was above 100 µM.
As for `O=C(/C=C/c1ccc(OCCCF)cc1)Nc1ccnc(-c2ccncc2)n1`, the IC50 is 37.5 µM and the IC90 was 68.8 µM.
As to `Cc1nc(NC(=O)c2ccccc2)sc1C1(C)CC(c2ccc(OC(F)(F)F)cc2)=NO1` (centres undefined), the IC50 is 24.6 µM and the IC90 was 41.1 µM.
For `O=c1c2cc(Br)cc(Br)c2oc2nc3n(c(=O)c12)CCCS3` the same measures were 5.87 µM and 13.1 µM.
The matching figures for `Cc1ccc(S(=O)(=O)n2ccc3c(OCCOCCNCc4ccc(F)cc4)cccc32)cc1`: 22.1 µM and 25.5 µM.
In the case of `COC(=O)CSc1nnc(-c2sc3cc(OC)ccc3c2Cl)n1C`, the IC50 is 9.08 µM and the IC90 is above 100 µM.
For `Oc1ccccc1Nc1nc(NCc2ccccc2)c2ccccc2n1` the same measures were 16.1 µM and 21.1 µM.
`CCOC(=O)Cn1c(C)c(Br)c(=O)c2cccc(C)c21`: the IC50 is 7.53 µM and the IC90 stood at 22.7 µM.
Take `CC(C)NC(=S)N/N=C/c1cc(Br)ccc1O`: the IC50 was 6.79 µM and the IC90 stood at 18.3 µM.
The matching figures for `CCOc1ccc(C2c3[nH]c4ccccc4c3C[C@H]3C(=O)N(C4CCN(Cc5ccccc5)CC4)CC(=O)N23)cc1OC` (some centres undefined): 21.5 µM and 29.7 µM.
For the compound `Cc1ccc(NC(=O)COc2ccc(-n3ccnc3)cc2)cc1Cl`, the IC50 is 24.8 µM and the IC90 is 28.8 µM.
For `COc1cc2cnc(-c3ccccc3)c(-c3ccc(C(F)(F)F)cc3)c2cc1OC` the same measures were 44 µM and above 50 µM.
The matching figures for `Oc1c(C(c2ccccc2Cl)N2CCCC2)ccc2cccnc12` (centres undefined): 14.1 µM and 31.1 µM.
`O=C(Nc1ccc(C2=NCCN2)cc1)c1ccc(Cl)c(C(=O)Nc2ccc(C3=NCCN3)cc2)c1`: the IC50 was 11.3 µM and the IC90 turned out to be 12.3 µM.
Regarding `CC(=O)N1CCN(c2ccc(Oc3ccc([N+](=O)[O-])c(C(F)(F)F)c3)cc2)CC1`, the concentration for half-maximal inhibition (IC50) was 7.54 µM and the IC90 turned out to be 19.3 µM.
On to `CCCc1cc(C(N)=S)ccn1`, for which the IC50 was 6.61 µM and the IC90 is above 100 µM.
Take `Cc1ccc2[nH]c3c(c2c1)CN(C(=O)CN1CCN(c2ccccn2)CC1)CC3`: the IC90 was above 100 µM.
As for `CCc1ccc(/C=C2/C(=O)N(C)C(=S)N2CC(=O)OC)s1`, the IC50 is 1.46 µM and the IC90 was 5.75 µM.
The matching figures for `Brc1ccc2c(c1)C(OC1CN3CCC1CC3)c1ccccc1CS2` (centres undefined): 25.2 µM and 28.4 µM.
On to `Nc1n[nH]c(C2CC2)c1N=Nc1ccc(Cl)cc1`, for which the IC50 is 19.3 µM and the concentration for an effect of 90% (IC90) was 41 µM.
The matching figures for `CC(OC(=O)c1cnc2ccccc2n1)c1ccccc1Cl` (centres undefined): 13.1 µM and 37 µM.
The matching figures for `C=C(C)C1CC=C(CN2CCN(Cc3ccccc3)CC2)CC1` (centres undefined): 15.7 µM and 25.9 µM.
For `NCCCn1c(C(=O)c2ccc(Cl)cc2)c2ccc([N+](=O)[O-])cc2[n+]1[O-]` the same measures were 23.9 µM and 32.3 µM.
Turning to `COc1ccc(/C=C2\CCC/C(=C\C=N\N(C)C)C2=O)cc1`, the IC50 is 8.19 µM and the IC90 was found to be 16.2 µM.
For `COc1cccc2c1C(=O)c1c(O)c3c(c(O)c1C2=O)C[C@@](O)(C(=O)CO)C[C@@H]3O[C@H]1C[C@H](N)[C@@H](O)[C@H](C)O1` the same measures were 2.64 µM and 4.86 µM.
For `O=C(COC(=O)C1=COCCO1)Nc1cccc(Oc2ccccc2)c1` the same measures were 5.18 µM and 55.4 µM.
For `COc1cc(OC)nc(-n2ncc(Br)c(Br)c2=O)n1` the same measures were 4.28 µM and 60.7 µM.
Regarding `COc1ccc(C(C(O)C(=O)c2c[nH]c3ccccc23)N2CCN(c3ccc(OC)cc3)CC2)cc1` (centres undefined), the concentration for half-maximal inhibition (IC50) was 100 µM and the 90% effect concentration (IC90) was above 100 µM.
Consider `Cc1ccc(S(=O)(=O)NNC(=O)c2cc([N+](=O)[O-])c(C)c([N+](=O)[O-])c2)cc1`, for which the IC50 is 7.57 µM and the IC90 turned out to be 12.5 µM.
The matching figures for `CCOC(=O)C(C)Sc1nc(-c2cccs2)ccc1C#N` (centres undefined): 37.6 µM and 50.8 µM.
The matching figures for `NC(N)=N/N=C/c1ccc(N(c2ccccc2)c2ccccc2)cc1`: 10.9 µM and 13.7 µM.
The matching figures for `Cc1nn(-c2ccccc2)c(Cl)c1/C=C/C(=O)c1ccccc1`: 49.1 µM and 56.7 µM.
In the case of `CCCCCOc1ccc(NC2=CC(=O)CCC2)cc1`, the IC50 was 52.4 µM and the IC90 is above 100 µM.
